Details: for molar entropy: 101.33 kPa

O=P([O-])([O-])[O-].[Fe+2].[Li+] [iron(II) lithium phosphate]
molar entropy [J/K/mol]
Details | Crystal 1, combination of DSC and relaxation calorimetry | Crystal 2, relaxation calorimetry
5 K | – | 0.0577
10 K | – | 0.1645
15 K | – | 0.5534
20 K | – | 1.241
25 K | – | 2.309
30 K | – | 3.785
35 K | – | 5.708
40 K | – | 8.078
42 K | – | 9.158
45 K | – | 10.96
46 K | – | 11.63
47 K | – | 12.33
48 K | – | 13.07
49 K | – | 13.86
49.24 K | 14.06 | 14.06
50 K | 14.7 | –
51 K | 15.21 | –
52 K | 15.67 | –
53 K | 16.11 | –
54 K | 16.53 | –
55 K | 16.95 | –
60 K | 19.01 | –
65 K | 21.09 | –
70 K | 23.23 | –
80 K | 27.71 | –
90 K | 32.41 | –
100 K | 37.27 | –
110 K | 42.25 | –
120 K | 47.28 | –
130 K | 52.34 | –
140 K | 57.41 | –
150 K | 62.46 | –
160 K | 67.48 | –
170 K | 72.46 | –
180 K | 77.39 | –
190 K | 82.26 | –
200 K | 87.07 | –
210 K | 91.83 | –
220 K | 96.51 | –
230 K | 101.1 | –
240 K | 105.7 | –
250 K | 110.2 | –
260 K | 114.6 | –
270 K | 119 | –
280 K | 123.3 | –
290 K | 127.5 | –
298.15 K | 130.9 | –
300 K | 131.7 | –
320 K | 139.9 | –
340 K | 147.9 | –
360 K | 155.6 | –
380 K | 163.1 | –
400 K | 170.5 | –
420 K | 177.6 | –
440 K | 184.6 | –
460 K | 191.4 | –
480 K | 198 | –
500 K | 204.4 | –
520 K | 210.8 | –
540 K | 216.9 | –
560 K | 223 | –
580 K | 228.9 | –
600 K | 234.6 | –
620 K | 240.3 | –
640 K | 245.8 | –
660 K | 251.2 | –
680 K | 256.5 | –
700 K | 261.8 | –
720 K | 266.9 | –
740 K | 271.9 | –
760 K | 276.8 | –

Details | Triple point temperature [K]
Crystal 2, Relaxation calorimeter | 49.24

Reference: the NIST ThermoML archive (doi:10.1016/j.jct.2015.01.007)
